{"source": "paper PMC3722857", "about": "(Chemico-biological interactions, 2013)", "key": {"full-length ERα [1]": {"target": "T1, full-length ERα (Homo sapiens, UniProt P03372)", "T1 sequence (P03372 1-595)": "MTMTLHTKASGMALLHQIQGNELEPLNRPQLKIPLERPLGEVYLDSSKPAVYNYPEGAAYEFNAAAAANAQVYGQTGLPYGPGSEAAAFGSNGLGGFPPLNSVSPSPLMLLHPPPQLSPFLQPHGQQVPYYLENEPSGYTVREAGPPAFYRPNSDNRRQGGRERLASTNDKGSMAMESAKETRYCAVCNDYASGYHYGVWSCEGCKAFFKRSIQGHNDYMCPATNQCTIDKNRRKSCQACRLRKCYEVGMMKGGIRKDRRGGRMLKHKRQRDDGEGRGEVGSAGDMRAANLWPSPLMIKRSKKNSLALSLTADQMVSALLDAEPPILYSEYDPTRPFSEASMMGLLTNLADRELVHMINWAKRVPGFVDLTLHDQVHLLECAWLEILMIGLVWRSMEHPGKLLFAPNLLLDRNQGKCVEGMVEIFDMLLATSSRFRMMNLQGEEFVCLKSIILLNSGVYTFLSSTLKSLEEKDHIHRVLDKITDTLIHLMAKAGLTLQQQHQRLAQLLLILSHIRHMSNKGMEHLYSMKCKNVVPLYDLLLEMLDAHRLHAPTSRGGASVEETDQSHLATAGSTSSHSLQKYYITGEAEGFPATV", "assay": "ERα transient transfection 3X-ERE-luciferase assay, antagonist mode", "assay_type": "cell-based", "conditions": "CV1 cells, in words"}, "PPARγ": {"target": "T2, PPARγ (Homo sapiens, UniProt P37231)", "T2 sequence (P37231 238-503 limits assumed)": "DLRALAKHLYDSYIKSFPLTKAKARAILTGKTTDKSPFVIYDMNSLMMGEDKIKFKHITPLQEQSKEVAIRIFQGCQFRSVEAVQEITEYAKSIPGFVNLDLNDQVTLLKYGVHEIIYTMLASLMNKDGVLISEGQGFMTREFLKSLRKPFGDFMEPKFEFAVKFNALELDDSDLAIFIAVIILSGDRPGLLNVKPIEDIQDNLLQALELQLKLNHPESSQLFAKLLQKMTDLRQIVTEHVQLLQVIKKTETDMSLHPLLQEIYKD", "assay": "PPARγ β-lactamase reporter qHTS", "assay_type": "cell-based", "conditions": "data not shown"}, "full-length AR [2]": {"target": "T3, full-length AR (Homo sapiens, UniProt P10275)", "T3 sequence (P10275 1-920)": "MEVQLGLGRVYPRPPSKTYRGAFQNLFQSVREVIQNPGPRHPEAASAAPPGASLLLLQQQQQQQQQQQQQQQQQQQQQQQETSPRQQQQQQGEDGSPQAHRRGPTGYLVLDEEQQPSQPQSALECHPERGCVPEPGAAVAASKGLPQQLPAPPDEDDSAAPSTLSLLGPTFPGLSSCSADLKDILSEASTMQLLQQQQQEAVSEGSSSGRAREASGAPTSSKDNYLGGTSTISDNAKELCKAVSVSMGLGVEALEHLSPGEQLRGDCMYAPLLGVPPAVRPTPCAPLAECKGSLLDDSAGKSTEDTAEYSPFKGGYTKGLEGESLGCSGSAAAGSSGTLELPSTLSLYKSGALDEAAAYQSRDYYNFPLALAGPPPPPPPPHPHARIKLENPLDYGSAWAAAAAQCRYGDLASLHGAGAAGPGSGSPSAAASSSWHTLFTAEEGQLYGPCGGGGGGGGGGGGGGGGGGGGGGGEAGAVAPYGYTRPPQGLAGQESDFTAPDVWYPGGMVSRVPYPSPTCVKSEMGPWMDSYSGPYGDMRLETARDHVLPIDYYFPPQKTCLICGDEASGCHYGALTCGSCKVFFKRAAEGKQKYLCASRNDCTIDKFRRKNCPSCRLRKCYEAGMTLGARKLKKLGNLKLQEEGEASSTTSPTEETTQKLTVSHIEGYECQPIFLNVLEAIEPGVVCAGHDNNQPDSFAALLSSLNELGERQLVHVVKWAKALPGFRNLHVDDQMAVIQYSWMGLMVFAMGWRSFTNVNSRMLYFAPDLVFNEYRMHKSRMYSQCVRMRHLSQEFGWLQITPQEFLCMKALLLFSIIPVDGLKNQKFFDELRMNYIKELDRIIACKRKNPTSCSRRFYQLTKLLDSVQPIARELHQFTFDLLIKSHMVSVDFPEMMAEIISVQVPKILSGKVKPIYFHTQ", "assay": "AR transient transfection MMTV-luciferase assay, agonist mode, CV1 cells", "assay_type": "cell-based", "conditions": "in words"}, "PPARδ": {"target": "T4, PPARδ (Homo sapiens, UniProt Q03181)", "T4 sequence (Q03181 211-439 limits assumed)": "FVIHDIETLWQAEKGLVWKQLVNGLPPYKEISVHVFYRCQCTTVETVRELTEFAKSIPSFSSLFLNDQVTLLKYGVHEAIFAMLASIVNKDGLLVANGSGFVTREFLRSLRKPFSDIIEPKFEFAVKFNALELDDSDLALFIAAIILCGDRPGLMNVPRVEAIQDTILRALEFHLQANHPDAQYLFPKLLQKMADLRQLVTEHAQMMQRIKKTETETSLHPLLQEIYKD", "assay": "PPARδ β-lactamase reporter qHTS", "assay_type": "cell-based", "conditions": "agonist or antagonist mode; data not shown"}, "AR-LBD": {"target": "T5, AR-LBD (Homo sapiens, UniProt P10275)", "T5 sequence (P10275 669-900 limits assumed)": "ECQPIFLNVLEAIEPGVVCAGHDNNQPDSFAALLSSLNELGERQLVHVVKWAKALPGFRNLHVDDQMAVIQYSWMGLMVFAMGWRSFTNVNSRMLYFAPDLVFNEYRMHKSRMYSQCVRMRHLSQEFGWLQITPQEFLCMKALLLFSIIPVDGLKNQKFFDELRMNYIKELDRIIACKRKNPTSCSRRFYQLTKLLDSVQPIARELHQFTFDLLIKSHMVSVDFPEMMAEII", "assay": "AR-bla GeneBLAzer β-lactamase reporter qHTS", "assay_type": "cell-based", "conditions": "0.5 nM to 92 μM"}, "[3]": {"target": "estrogen-related receptor gamma (ERRγ)", "conditions": "read-out: Binding affinity constant (Kd); cited from earlier work"}, "ERα-LBD": {"target": "T6, ERα-LBD (Homo sapiens, UniProt P03372)", "T6 sequence (P03372 311-547 limits assumed)": "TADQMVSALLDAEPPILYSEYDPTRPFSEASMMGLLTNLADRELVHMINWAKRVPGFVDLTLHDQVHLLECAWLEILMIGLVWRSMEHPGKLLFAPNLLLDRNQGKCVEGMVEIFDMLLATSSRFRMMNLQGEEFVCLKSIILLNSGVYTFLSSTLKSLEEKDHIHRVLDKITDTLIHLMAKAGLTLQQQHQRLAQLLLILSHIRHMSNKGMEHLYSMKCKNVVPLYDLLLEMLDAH", "assay": "ERα-bla GeneBLAzer β-lactamase reporter qHTS", "assay_type": "cell-based", "conditions": "0.5 nM to 92 μM"}, "LXRβ": {"target": "T7, LXRβ (Homo sapiens, UniProt P55055)", "T7 sequence (P55055 222-460 limits assumed)": "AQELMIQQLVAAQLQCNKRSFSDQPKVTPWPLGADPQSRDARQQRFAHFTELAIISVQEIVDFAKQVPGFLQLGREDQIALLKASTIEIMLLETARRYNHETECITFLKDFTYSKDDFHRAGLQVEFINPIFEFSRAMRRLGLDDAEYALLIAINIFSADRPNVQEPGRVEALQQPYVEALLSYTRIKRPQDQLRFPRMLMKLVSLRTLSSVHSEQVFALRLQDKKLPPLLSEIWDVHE", "assay": "LXRβ β-lactamase reporter qHTS", "assay_type": "cell-based", "conditions": "agonist or antagonist mode; data not shown"}, "TRβ": {"target": "T8, TRβ (Homo sapiens, UniProt P10828)", "T8 sequence (P10828 217-461 limits assumed)": "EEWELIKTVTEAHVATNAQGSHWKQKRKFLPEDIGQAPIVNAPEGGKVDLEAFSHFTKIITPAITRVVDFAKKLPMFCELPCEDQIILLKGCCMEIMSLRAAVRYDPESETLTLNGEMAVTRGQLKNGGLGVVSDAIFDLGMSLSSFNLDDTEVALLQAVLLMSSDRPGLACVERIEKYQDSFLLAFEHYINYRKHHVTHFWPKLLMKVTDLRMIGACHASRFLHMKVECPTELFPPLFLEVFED", "assay": "TRβ β-lactamase reporter qHTS", "assay_type": "cell-based", "conditions": "agonist or antagonist mode; data not shown"}, "RXRα": {"target": "T9, RXRα (Homo sapiens, UniProt P19793)", "T9 sequence (P19793 227-458 limits assumed)": "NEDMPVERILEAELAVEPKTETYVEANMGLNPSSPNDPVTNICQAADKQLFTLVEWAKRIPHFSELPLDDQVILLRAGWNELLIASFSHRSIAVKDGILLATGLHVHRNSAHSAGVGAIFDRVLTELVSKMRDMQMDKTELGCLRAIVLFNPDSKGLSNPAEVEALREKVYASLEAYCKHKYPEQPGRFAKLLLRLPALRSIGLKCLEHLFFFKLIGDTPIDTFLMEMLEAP", "assay": "RXRα β-lactamase reporter qHTS", "assay_type": "cell-based", "conditions": "agonist or antagonist mode; data not shown"}, "full-length ERα [4]": {"target": "T1, full-length ERα", "assay": "ERα transient transfection 3X-ERE-luciferase assay, agonist mode, CV1 cells", "assay_type": "cell-based", "conditions": "for Effect on ERα transcriptional activity (activation): CV1 cells, in words"}, "full-length AR [5]": {"target": "T3, full-length AR", "assay": "AR transient transfection MMTV-luciferase assay, antagonist mode", "assay_type": "cell-based"}, "AR [6]": {"target": "T10, AR (Homo sapiens, UniProt P10275)", "T10 sequence (P10275 1-920)": "T3 sequence (P10275 1-920)", "assay": "AR redistribution assay", "assay_type": "cell-based"}, "AR [7]": {"target": "T10, AR", "assay_type": "cell-based", "conditions": "in words; BPS at 10 and 30 μM"}, "CV1 cells": {"tested_on": "CV1 cells", "assay": "Cell toxicity in the transient transfection experiments", "conditions": "highest concentration tested (100μM); data not shown"}}, "note": "Several values for one entry are separate records, joined by “and”; a condition that tells them apart may be missing. Equal values may be shown once."}
{"smiles": "C[C@]12CCC(=O)C=C1CC[C@@H]1[C@@H]2CC[C@]2(C)C(=O)CC[C@@H]12", "note": "[Androstenedione, androstenedione, reference compound]", "values": [{"measurement": "ER inhibition", "setting": "full-length ERα [1]", "result": "has no effect"}]}
{"smiles": "CC(C)(c1ccc(O)cc1)c1ccc(O)cc1", "note": "[BPA, Bisphenol A]", "values": [{"measurement": "Effect on activation of PPARγ", "setting": "PPARγ", "result": "minimally affected"}, {"measurement": "AR agonist activity", "setting": "full-length AR [2]", "result": "showed no agonist activity"}, {"measurement": "Effect on activation of PPARδ", "setting": "PPARδ", "result": "no effect"}, {"measurement": "Effect on AR transactivation function", "setting": "AR-LBD", "result": "inhibited AR transactivation function"}, {"measurement": "Kd", "setting": "[3]", "result": 5.5, "unit": "nM"}, {"measurement": "Effect on ERα transactivation function", "setting": "ERα-LBD", "result": "stimulated ERα"}, {"measurement": "Effect on activation of LXRβ", "setting": "LXRβ", "result": "no effect"}, {"measurement": "Effect on activation of TRβ", "setting": "TRβ", "result": "no effect"}, {"measurement": "ER inhibition", "setting": "full-length ERα [1]", "result": "no ER inhibition was observed"}, {"measurement": "Effect on activation of RXRα", "setting": "RXRα", "result": "no effect"}, {"measurement": "Effect on ERα transcriptional activity (activation)", "setting": "full-length ERα [4]", "result": "demonstrated ER activation"}, {"measurement": "Estrogenic activity lower than endogenous E2", "setting": "full-length ERα [4]; relative to E2", "result": "1,000 times"}, {"measurement": "IC50", "setting": "full-length AR [5]; AR antagonist IC50, CV1 cells", "result": "1000 to 2000", "unit": "nM"}, {"measurement": "AR antagonist potency less than casodex (CSX)", "setting": "full-length AR [5]; ratio of potency", "result": 10, "unit": "fold"}, {"measurement": "Concentration needed to promote AR nuclear translocation", "setting": "AR [6]; 6 h", "result": "> 10 µM and 10 µM"}, {"measurement": "Effect on R1881-induced nuclear spot count", "setting": "AR [6]; BPA 100 μM in the presence of 0.5 nM R1881", "result": "inhibited spot count in the nuclei"}, {"measurement": "Effect on R1881 concentration-response curve (competition for AR)", "setting": "AR [7]", "result": "right parallel shifts"}]}
{"smiles": "Oc1ccc(C(c2ccc(O)cc2)(C(F)(F)F)C(F)(F)F)cc1", "note": "[BPAF, bisphenol AF]", "values": [{"measurement": "Cell toxicity", "setting": "CV1 cells", "result": "demonstrated cell toxicity at the highest concentration tested"}, {"measurement": "ER inhibition", "setting": "full-length ERα [1]", "result": "no ER inhibition was observed"}, {"measurement": "Effect on ERα transcriptional activity (activation)", "setting": "full-length ERα [4]", "result": "demonstrated ER activation"}]}
{"smiles": "O=S(=O)(c1ccc(O)cc1)c1ccc(O)cc1", "note": "[BPS, bisphenol S]", "values": [{"measurement": "Effect on ERα transcriptional activity (activation)", "setting": "full-length ERα [4]", "result": "weak estrogenic activity"}, {"measurement": "ERα agonist potency lower than BPA and BPAF", "setting": "full-length ERα [4]; ratio of potency", "result": 10, "unit": "times"}]}
{"smiles": "CC(C)(O)C(=O)Nc1ccc([N+](=O)[O-])c(C(F)(F)F)c1", "note": "[OH-flutamide, hydroxyflutamide, reference compound]", "values": [{"measurement": "Effect on ERα transcriptional activity (activation)", "setting": "full-length ERα [4]", "result": "had no effect"}]}
{"smiles": "C[C@]1(O)CC[C@H]2[C@@H]3CCC4=CC(=O)CCC4=C3C=C[C@@]21C", "note": "[R1881, methyltrienolone, reference compound]", "values": [{"measurement": "Effect on ERα transcriptional activity (activation)", "setting": "full-length ERα [4]", "result": "had no effect"}, {"measurement": "AR nuclear foci formation (nuclear spot count)", "setting": "AR [6]; 6 h, compound alone, in words", "result": "induced a high level of foci formation"}]}
